Like-named read-outs stand apart in the source and are kept apart here.
Key:
hPAD4 enzyme = hPAD4 enzyme (Homo sapiens (Human), UniProt Q9UM07); assay: PAD4 RapidFire Mass Spectrometry (RFMS) activity assay, hPAD4; format: biochemical
mPAD4 = mPAD4 (Mus musculus (Mouse), UniProt Q9Z183); assay: PAD4 RapidFire Mass Spectrometry (RFMS) activity assay, mPAD4; format: biochemical
[1] = 100 nM hPAD4, 50 μM substrate peptide, 1 mM CaCl2, 65 mins at 37° C., read-out: hPAD4 RFMS IC50
[2] = pIC50=−log(IC50), read-out: hPAD4 RFMS pIC50 (converted)
[3] = pIC50=−log(IC50), read-out: mPAD4 RFMS pIC50 (converted)

mPAD4, sequence (Q9Z183 whole entry): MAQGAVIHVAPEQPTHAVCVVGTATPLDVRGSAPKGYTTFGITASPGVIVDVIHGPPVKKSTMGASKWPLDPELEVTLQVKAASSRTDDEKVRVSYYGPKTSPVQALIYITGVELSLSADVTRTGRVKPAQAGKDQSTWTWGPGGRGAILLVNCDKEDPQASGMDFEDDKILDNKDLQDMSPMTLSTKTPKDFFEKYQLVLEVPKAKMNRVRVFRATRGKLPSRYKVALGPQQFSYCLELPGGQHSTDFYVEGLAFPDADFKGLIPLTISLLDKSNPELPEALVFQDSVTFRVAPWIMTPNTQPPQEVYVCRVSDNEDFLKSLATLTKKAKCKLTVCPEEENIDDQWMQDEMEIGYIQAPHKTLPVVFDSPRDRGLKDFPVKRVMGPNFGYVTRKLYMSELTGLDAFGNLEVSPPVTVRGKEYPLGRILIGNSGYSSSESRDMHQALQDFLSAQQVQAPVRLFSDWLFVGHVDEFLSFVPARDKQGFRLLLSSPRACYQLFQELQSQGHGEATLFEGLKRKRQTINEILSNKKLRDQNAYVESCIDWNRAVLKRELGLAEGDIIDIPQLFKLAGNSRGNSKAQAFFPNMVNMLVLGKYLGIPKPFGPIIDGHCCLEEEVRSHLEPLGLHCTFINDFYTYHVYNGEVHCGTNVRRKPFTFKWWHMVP
hPAD4 enzyme, sequence (Q9UM07 whole entry): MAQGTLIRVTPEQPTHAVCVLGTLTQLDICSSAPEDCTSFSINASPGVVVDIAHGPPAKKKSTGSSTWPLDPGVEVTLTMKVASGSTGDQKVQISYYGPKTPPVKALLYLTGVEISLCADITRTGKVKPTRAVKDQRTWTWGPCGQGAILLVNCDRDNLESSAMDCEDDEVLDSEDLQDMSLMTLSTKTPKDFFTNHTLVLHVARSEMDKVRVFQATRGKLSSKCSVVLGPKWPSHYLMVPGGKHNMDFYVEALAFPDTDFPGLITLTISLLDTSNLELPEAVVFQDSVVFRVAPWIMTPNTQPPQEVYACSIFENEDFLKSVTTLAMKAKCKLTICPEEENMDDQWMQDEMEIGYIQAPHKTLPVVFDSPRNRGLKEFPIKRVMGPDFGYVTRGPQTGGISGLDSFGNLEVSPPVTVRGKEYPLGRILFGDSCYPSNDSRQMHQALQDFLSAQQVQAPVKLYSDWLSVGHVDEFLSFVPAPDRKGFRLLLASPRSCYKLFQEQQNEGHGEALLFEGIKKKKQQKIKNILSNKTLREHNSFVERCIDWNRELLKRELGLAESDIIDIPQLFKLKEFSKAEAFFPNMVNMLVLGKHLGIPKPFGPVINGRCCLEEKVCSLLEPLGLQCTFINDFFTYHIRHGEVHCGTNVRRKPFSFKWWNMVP

SMILES	IC50 (hPAD4 enzyme; [1]) [µM]	IC50 (hPAD4 enzyme; [2]) [µM]	IC50 (mPAD4; [3]) [µM]	IC50 (mPAD4; read-out: mPAD4 RFMS IC50) [µM]
CN(C)C/C=C/C(=O)N[C@H]1CCN(C(=O)c2ccc3c(c2)nc(-c2cc4cccnc4n2CC2CC2)n3C)C[C@H]1N (racemic) [Compound I-3, Cis-rac-(2E)-N-[(3R,4S)-3-amino-1-{2-[1-(cyclopropylmethyl)-1H-pyrrolo[2,3-b]pyridin-2-yl]-1-methyl-1H-1,3-benzodiazole-5-carbonyl}piperidin-4-yl]-4-(dimethylamino)but-2-enamide]	> 10	100 to 100000	10 to 100	> 10
CN(C)C/C=C/C(=O)N[C@@H]1C[C@H](N)CN(C(=O)c2ccc3c(c2)nc(-c2cc4cccnc4n2CC2CC2)n3C)C1 (racemic) [Compound I-10, Cis-rac-(2E)-N-[(3R,5S)-5-amino-1-{2-[1-(cyclopropylmethyl)-1H-pyrrolo[2,3-b]pyridin-2-yl]-1-methyl-1H-1,3-benzodiazole-5-carbonyl}piperidin-3-yl]-4-(dimethylamino)but-2-enamide]	> 10	10 to 100	10 to 100	> 10
C=CC(=O)O[C@@H]1CNC[C@@H]1NC(=O)c1ccc2c(c1)nc(-c1cc3cccnc3n1CC1CC1)n2C (racemic) [Compound I-11, Rac-(3R,4S)-4-{2-[1-(cyclopropylmethyl)-1H-pyrrolo[2,3-b]pyridin-2-yl]-1-methyl-1H-1,3-benzodiazole-5-amido}pyrrolidin-3-yl prop-2-enoate]	> 10	10 to 100		
C=CC(=O)N(C)[C@@H]1C[C@@H]2CN(C(=O)c3cc(OC)c4c(c3)nc(-c3cc5cccnc5n3CC3CC3)n4C)[C@H]1[C@@H]2N (single isomer, unassigned) [Compound I-16]	> 10	100 to 100000		
C=CC(=O)N(C)[C@H]1C[C@@H]2CN(C(=O)c3cc(OC)c4c(c3)nc(-c3cc5cccnc5n3CC3CC3)n4C)[C@H]1[C@@H]2N (single isomer, unassigned) [Compound I-17]	> 10	100 to 100000		
C/C=C/C(=O)N[C@@H]1CNC[C@H]1NC(=O)c1ccc2c(c1)nc(-c1cc3cccnc3n1CC1CC1)n2C [Compound I-6]	> 10	100 to 100000		
CN(C)C/C=C/C(=O)NCCN(CCc1cnc[nH]1)C(=O)c1ccc2c(c1)nc(-c1cc3cccnc3n1CC1CC1)n2C [Compound I-7, (2E)-N-[2-(1-{2-[1-(Cyclopropylmethyl)-1H-pyrrolo[2,3-b]pyridin-2-yl]-1-methyl-1H-1,3-benzodiazol-5-yl}-N-[2-(1H-imidazol-5-yl)ethyl]formamido)ethyl]-4-(dimethylamino)but-2-enamide]	> 10	100 to 100000		
CN(C)C/C=C/C(=O)N[C@@H]1CCCN(C(=O)c2ccc3c(c2)nc(-c2cc4cccnc4n2CC2CC2)n3C)C1 [Compound I-12, (2E)-N-[(3R)-1-{2-[1-(cyclopropylmethyl)-1H-pyrrolo[2,3-b]pyridin-2-yl]-1-methyl-1H-1,3-benzodiazole-5-carbonyl}piperidin-3-yl]-4-(dimethylamino)but-2-enamide]	> 10	10 to 100		
C=CC(=O)N[C@@H]1CCCN(C(=O)c2ccc3c(c2)nc(-c2cc4cccnc4n2CC2CC2)n3C)C1 [Compound I-13, N-[(3R)-1-{2-[1-(cyclopropylmethyl)-1H-pyrrolo[2,3-b]pyridin-2-yl]-1-methyl-1H-1,3-benzodiazole-5-carbonyl}piperidin-3-yl]prop-2-enamide]	> 10	100 to 100000		

Source: patent publication US10703741B2, “Covalent inhibitors of PAD4” (Padlock Therapeutics, Inc., priority 2016, dated 2020)
